Laboratory results as given in publication PMC6160931, “Processing Impact on Performance of Solid Dispersions” (Pharmaceutics, 2018).
In brackets after ≈: the same amount, converted by molar mass. Where a name gives a salt, the structure may show the parent alone. Read-outs that look alike come from different tables or passages of the source.

What was measured:
Format in all cases: physicochemical
[1] = Solid-state chemical/physical stability of drug forms; conditions: chemical and physical
From the text: (§1) Table 1 Physical/chemical properties of MK-A.

[2] = Solubility in H2O, SGF and FaSSIF
From the text: as §1

Log P (free base) = test: Log P (free base)
From the text: as §1

[3] = Chemical stability under accelerated conditions (% area)
Description: The stability of various formulations of MK-A was evaluated under accelerated conditions (Table 4). Levels of potency reduction right after the solid dispersion preparation were 1.7% and 4.6% for spray drying and hot melt extrusion, respectively. The higher potency reduction in HME was attributed to the higher processing temperature of the HME process (~140 °C) at which thermal degradation of the drug occurred. The potency of the amorphous form of active was further reduced after 2 weeks storage at 40 °C/75% relative humidity (RH) conditions in closed glass vials by up to as much as 8.5% loss of potency in the solid dispersion via HME.

[4] = Fasted Simulated Small Intestine Fluid (FaSSIF)

solubility [2, 4] [µg/mL]	solubility ([2]; simulated gastric fluid (SGF), simulated gastric fluid, Simulated Gastric Fluid (SGF), read-out: Solubility) [µg/mL]	solubility ([2]; water, pH 3.5, water, H2O (pH = 3.5), read-out: Solubility) [µg/mL]	logP (Log P (free base))	2 Weeks at 40 °C/75% RH Closed (% Area) ([3]; 2 weeks, 40 °C/75% RH, closed glass vials)	Initial (% Area) ([3]; initial, after preparation)	solubility ([2]; Simulated Gastric Fluid (SGF)) [µg/mL]	solubility ([2]; water, pH 7.3, water, H2O (pH = 7.3), read-out: Solubility) [µg/mL]	Log P (free base) (Log P (free base))	SMILES	Stability [1]
21	525	661	4.5						CS[C@@]1(C(=O)Nc2ccc3[nH]nc(-c4ccc(OC(C)C)nc4)c3c2)CCN(CC(=O)N2CC=C(c3ccc(-c4ncn(C)n4)cc3)CC2)C1 [MK-A HCl salt]	Chemically stable in the solid-state; Physically stable at various temperatures and humidity conditions but sensitive to mechanical stress
2 (≈ 2.89 µM)				98.8	98.8	907 (≈ 1310 µM)	0.3 (≈ 0.434 µM)	4.5	CS[C@@]1(C(=O)Nc2ccc3[nH]nc(-c4ccc(OC(C)C)nc4)c3c2)CCN(CC(=O)N2CC=C(c3ccc(-c4ncn(C)n4)cc3)CC2)C1 [MK-A free base]	Chemically and physically stable
